Data taken from patent US20240382455A1, “COMPOSITION CONTAINING 1H-PYRAZOLE-3-AMIDE-BASED COMPOUND DERIVATIVE FOR PREVENTION OR TREATMENT OF FIBROSIS” (TSD LIFE SCIENCES CO., LTD., priority 2017, published 2024).

How the values were obtained:
Assay type in all cases: in vivo, C57BL/6 mice
[1] = test system: collagen permeated into liver tissue of fibrosis model mice; assay: Picrosirius staining of liver tissue of fibrosis model mice; conditions: liver tissue (FIG. 4); high fat and high-carbohydrate diet mice; 10 mg/kg intraperitoneal for 4 weeks; compared to vehicle treatment group
Procedure: (§1) First, after stabilizing 5-week old male C57BL/6 mice for one week, a fibrosis model was constructed by feeding the mice with a high fat diet and a high-carbohydrate diet for 12 weeks, thereby inducing fibrosis of the mice. After that, the mice were divided into total four groups, and a vehicle (negative control group), 10mg/kg of rimonabant (positive control group), 10 mg/kg of a compound 1, and 10mg/kg of a compound 2 were administered to each of the groups by intraperitoneal injection for 4 weeks. In order to perform an experimental process, the mice were sacrificed, and epididymal adipose and liver tissues were extracted from the sacrificed mice.
(§2) After fixing and embedding the extracted epididymal adipose and liver tissues, paraffin sections were manufactured by slicing the embedded epididymal adipose and liver tissues. After that, fibrosis degrees were analyzed by staining collagen permeated into each of the tissues by using a picrosirius red stain kit.

[2] = test system: αSMA, TGF-β1, COL6A3, and LOX mRNAs; assay: Quantitative real-time PCR on liver tissue of fibrosis model mice; conditions: liver tissue (FIG. 5); 10 mg/kg intraperitoneal for 4 weeks; almost similar to rimonabant 10 mg/kg positive control
Procedure: as §1
(§3) After separating RNA from the extracted epididymal adipose and liver tissues by using a Trizol reagent (Gibco), cDNA templates were produced by using reverse transcriptase. After injecting such produced cDNA templates into SYBR green dyes by using gene-specific nucleotide primers, PCR products were analyzed to obtain analyzed mRNAs by amplifying the cDNA templates injected into SYBR green dyes with a real-time multiplexing amplification system (CFX connect™, Bio-Rad). At this time, the analyzed mRNAs were αSMA, TGF-β1, COL6A3, and LOX mRNAs, and used primer sequences are as described in the following [Table 1].

[3] = test system: αSMA, TGF-β1, COL6A3, and LOX mRNAs; assay: Quantitative real-time PCR on epididymal adipose tissue of fibrosis model mice; conditions: adipose tissue (FIG. 3); 10 mg/kg intraperitoneal for 4 weeks; almost similar to rimonabant 10 mg/kg positive control
Procedure: as §1, §3

[4] = test system: collagen permeated into epididymal adipose tissue of fibrosis model mice; assay: Picrosirius staining of epididymal adipose tissue of fibrosis model mice; conditions: adipose tissue (FIG. 2); high fat and high-carbohydrate diet mice; 10 mg/kg intraperitoneal for 4 weeks; compared to vehicle treatment group
Procedure: as §1, §2

| Compound | accumulation degrees stained with red color (picrosirius, collagen) [1] | expression of four gene mRNAs (αSMA, TGF-β1, COL6A3, LOX) [2] | expression of four gene mRNAs (αSMA, TGF-β1, COL6A3, LOX) [3] | accumulation degrees stained with red color (picrosirius, collagen) [4] |
| --- | --- | --- | --- | --- |
| Cc1c(C(=O)C(=O)NCCO)nn(-c2ccc(Cl)cc2Cl)c1-c1ccc(Cl)cc1 [compound 2, 2-(5-(4-chlorophenyl)-1-(2,4-dichlorophenyl)-4-methyl-1H-pyrazole-3-yl)-N-(2-hydroxyethyl)-2-oxo-acetamide] | reduced | inhibited | inhibited | reduced |
| Cc1c(/C=C/C(=O)NCc2cccc(Cl)c2)nn(-c2ccc(Cl)cc2Cl)c1-c1ccc(Cl)cc1 [compound 1, (E)-N-(3-chlorobenzyl)-3-(5-(4-chlorophenyl)-1-(2,4-dichlorophenyl)-4-methyl-1H-pyrazole-3-yl)acrylamide] | reduced | inhibited | inhibited | reduced |
